Results taken from US11071790B2, “Method for efficient delivery of therapeutic molecules in vitro and in vivo” (Massachusetts Eye and Ear Infirmary, priority 2014, dated 2021).
No end group written: not given here.

Legend:
[1] = test system: cochlear hair cells and supporting cells of Rosa-tdTomato f/f mouse; test: Cre delivery into Rosa-tdTomato mouse cochlea in vivo (tdT labeling); details: for tdT-labeled hair cells: near the injection site (base turn of cochlea)
Method: FIGS. 10A and 10B show the in vivo delivery of Cre recombinase to hair cells in the mouse inner ear. FIG. 10A: The scala media (cochlear duct) of P0 floxP-tdTomato mice (n=4) were injected with 0.3 μL of 23 μM (−30)GFP-Cre in 50% RNAiMAX or with RNAiMAX alone (control). […] Red=tdTomato; green=Myo7a; white=Sox2; blue=DAPI. Yellow brackets indicate the outer hair cell (OHC) region. […] Red=tdTomato; green=Esp, white=Sox2; blue=DAPI, Scale bars: 10 μm.
FIGS. 11A-11E show the high efficiency of protein delivery mediated by aurein in the inner ear in vivo. […] FIG. 11E: In Opti-MEM injected control mice no tdT labeling was detected in any inner ear cells. Scale bars: 10 μm.
The use of (−30)-GFP protein and a new positively charged (+36)-GFP protein to carry Cre, (−30)-GFP-Cre and (+36)-GFP-Cre, was tested for injection into mouse cochlea in vivo. The mouse used was Rosa-tdTomato^f/f in which functional Cre activity in the nuclei results in cells being labeled with tdT (red). It was shown that both (−30)-GFP-Cre and (+36)-GFP-Cre injections led to tdT expression in the cochlear hair cells.
It was next tested whether Aurein, an antimicrobial peptide, in combination with s-GFP, can serve as an effective carrier to deliver functional proteins into mouse inner ear cell types with high efficiency. (+36)-GFP-aurein-Cre was injected with different concentrations into P3 Rosa-tdT mouse inner ear by cochleostomy in vivo. The tissues were harvested 5 days later for immunolabeling to identify tdT^+ inner ear cell types. […] At 22.5 μM, 58% of OHC and 75% of IHC, as well as 8% of SC were tdT^+. At the highest 50 μM, 96% of OHC, 88% of IHC and 19% of SC were tdT^+. Some spiral ganglion neurons were also tdT^+ at 22.5 and 50 μM (FIGS. 11A-11E and FIG. 12).

BSR.LNL.tdTomato cells [2] = test: primary screen for cytosolic delivery of Cre recombinase (fluorescence image analysis); type: cell-based, hamster
Method: Initial screen of 20 peptide-(+36 GFP)-Cre conjugated proteins. Cytosolic Cre delivery results in recombination and tdTomato expression. The percentage of tdTomato positive cells was determined by fluorescence image analysis. […] Cells were washed and supplanted with full DMEM and incubated for 48 h. Error bars represent the standard deviation of three independent biological replicates.
BSR.LNL.tdTomato cells were plated at 10,000 cells per well in black 384-well plates (Aurora Biotechnologies). […] Following incubation, the cells were washed three times with PBS+20 U/mL heparin. The cells were incubated a further 48 h in serum-containing media. Cells were fixed in 3% paraformaldehyde and stained with Hoescht 33342 nuclear dye. Images were acquired on an ImageXpress Micro automated microscope (Molecular Devices) using a 4× objective (binning 2, gain 2), with laser- and image-based focusing (offset −130 μm, range ±50 μm, step 25 μm). Images were exposed for 10 ms in the DAPI channel (Hoechst) and 500 ms in the dsRed channel (tdTomato). Image analysis was performed using the cell-scoring module of MetaXpress software (Molecular Devices). All nuclei were detected with a minimum width of 1 pixel, maximum width of 3 pixels, and an intensity of 200 gray levels above background. […] In total, nine images were captured and analyzed per well, and 16 wells were treated with the same fusion protein. The primary screen was completed in biological triplicate.
Because Cre recombinase must enter the cell, escape endosomes, enter the nucleus, and catalyze recombination to generate tdTomato fluorescence, this assay reflects the availability of active, non-endosomal recombinase enzyme that reaches the nucleus.
The reporter BSR.LNL.tdTomato cells were incubated with 250 nM of each peptide-(+36 GFP)-Cre protein in serum-free media.

BSR.LNL.tdTomato cells [3] = test: ATP-dependent cell viability assay (CELLTITER-GLO); details: 1 μM, 48 h after treatment
Method: (§1) FIGS. 15A, 15B are graphs showing the efficacy and toxicity of recombinant expression fusions of aurein 1.2 (“E”) and citropin 1.3 (“U”). […] The percentage of tdTomato positive cells was determined by flow cytometry. Protein fusions were delivered at 125 nM, 250 nM, 500 nM, and 1 μM. […] Protein fusions were delivered at 125 nM, 250 nM, 500 nM, and 1 μM. […] Cells were treated with 250 nM protein for 4 h in serum-free media. Cells were washed and supplanted with full DMEM and incubated for 48 h. Error bars represent the standard deviation of three independent biological replicates.
(§2) Uptake and delivery assays for Cre fusion proteins were performed as previously described (Cronican, J. J.; et al. ACS Chemical Biology 2010, 5, 747). Briefly, proteins were diluted in serum-free DMEM and incubated on the cells in 48-well plates for 4 h at 37° C. Following incubation, the cells were washed three times with PBS+20 U/mL heparin. The cells were incubated a further 48 h in serum-containing media prior to trypsinization and analysis by flow cytometry. […] Toxicity for alanine scan mutational analysis was determined with LIVE/DEAD fixable far-red dead cell stain (Life Technologies) with 635 nm laser and 670/30 nm filter.
Next, the toxicity of each fusion protein was evaluated at a range of concentrations (125 nM to 1 μM) using an ATP-dependent cell viability assay at 48 h after treatment.

[4] = test system: cochlear hair cells of Rosa26-tdTomato mice; test: in vivo delivery of Cre recombinase into mouse neonatal cochlea (tdTomato recombination)
Method: 0.4 μL of 50 μM+36 GFP-Cre or aurein 1.2-+36 GFP-Cre were injected into the scala media. […] Inner hair cells (IHC), outer hair cells (OHC) and supporting cells in the sensory epithelium (SE) were imaged for the presence of tdTomato, which is only expressed following Cre-mediated recombination. Hair cells were labeled with antibodies against the hair-cell marker Myo7a.
P1-2 Gt(ROSA)26Sor^tm14(CAG-tdTomato)Hze mice were used for aurein 1.2-+36-GFP-Cre and +36-GFP-Cre injection. The Rosa26-tdTomato mice were from the Jackson Laboratory. […] Mice were anesthetized by hypothermia on ice. Cochleostomies were performed by making an incision behind the ear to expose the cochlea. Glass micropipettes held by a micromanipulator were used to deliver the complex into the scala media, which allows access to inner ear hair cells. […]
To quantify the number of tdTomato positive cells after aurein 1.2-+36-GFP-Cre and +36-GFP-Cre, we counted the total number of inner and outer hair cells in a region spanning 100 μm in the apex, middle, and base turn of the cochlea.
Anesthetized postnatal day 2 (P2) mice were injected with 0.4 μL of 50 μM+36 GFP-Cre or aurein 1.2-+36 GFP-Cre solutions in the scala media to access the cochlear cells. […] Both the hair cells (Myo7a+) and supporting cells (Myo7a−) were evaluated for td Tomato signal.

[5] = test system: glucocorticoid receptor (GR-mCherry) in HeLa cells; test: GR-mCherry translocation assay; type: cell-based; details: 1 μM, 30 min
Method: One day prior to transfection 10,000 HeLa cells in 200 μL of DMEM (10% FBS, 1× Pen-Strep) were plated into single wells of a 96-well MATRICAL glass bottom microplate (MGB096-1-2-LG-L) and allowed to adhere overnight. The following day, cells were transfected with GRmCherry using LIPOFECTAMINE® 2000 technologies. Following transfection, cells were allowed to recover overnight in DMEM (+10% FBS). The following day, cells were treated with dexamethasone (Dex) or 1 μM Dex-protein conjugate in the presence or absence of inhibitor diluted into DMEM (without phenol red, +300 nM Hoescht33342). After 30 min, cells were washed twice with 200 μL of HEPES-Krebs-Ringer's (HKR) buffer (140 mM NaCl, 2 mM KCl, 1 mM CaCl2, 1 mM MgCl2, and 10 mM HEPES at pH 7.4), after which 100 μL of HKR buffer was overlaid onto the cells and images were acquired on a Zeiss Axiovert 200M epifluorescence microscope outfitted with Ziess AxiocammRM camera and an EXFO-Excite series 120 Hg arc lamp. The translocation ratio (the ratio of median […] intensity in the nuclear and surrounding regions) for individual cells was measured using CELLPROFILER® as described 36. […]
Although endosomal escape is widely considered to be the major bottleneck of cationic protein delivery (Sahay, G.; et al. Nature Biotechnology 2013, 31, 653), few assays quantify the ability of proteins to escape endosomes on a single-cell basis.

BSR.LNL.tdTomato cells [6] = test: Cre delivery assay of recombinant fusion proteins (flow cytometry); type: cell-based, hamster; details: 250 nM, fused to +36 GFP-Cre
Method: as §1
The percentage of tdTomato positive cells was determined by flow cytometry. […] Cells were washed and supplanted with full DMEM and incubated for 48 h.
as §2

Substance: (−30)-GFP-Cre: negatively supercharged GFP fused to Cre recombinase, SEQ ID NO: 4
- tdT-labeled hair cells [1]: ~30%
- stereocilia of tdTomato-positive outer hair cells ([1]; ten days after delivery, 23 μM in 50% RNAiMAX): intact espin (Esp)-expressing stereocilia of tdTomato-positive outer hair cells were present

Substance: +36 GFP-Cre: superpositively charged GFP fused to Cre recombinase, SEQ ID NO: 1
- tdT labeling of cochlear cells ([1]; 50 μM): very few IHC and HC were labeled with tdT
- tdT-labeled hair cells [1]: ~30%
- recombined cells (BSR.LNL.tdTomato cells [2]; 250 nM protein with 100 μM chloroquine (positive control)): 48%
- cells expressing tdTomato (recombined cells) (BSR.LNL.tdTomato cells [2]; 250 nM protein, 4 h serum-free, 48 h): 4.5%
- viable cells (BSR.LNL.tdTomato cells [3]): 85%
- Cre-mediated recombination in inner hair cells (IHC) ([4]; apex, 50 μM): 4.4%

Substance: Arg8^Dex: dexamethasone-labeled canonical cell permeable peptide Arg8, SEQ ID NO: 102 (RRRRRRRR; also: dexamethasone label, site not given here)
- nuclear-to-cytoplasm translocation ratio (TR) [5]: 1.63

Substance: GLFDIIKKIAEAF [S12A]
- overall recombination efficiency of aurein 1.2 variants (BSR.LNL.tdTomato cells [6]): potentially improved overall recombination efficiency

Substance: GLFDIIKKIAESF (listed as Litoria aurea) [aurein 1.2]
- potency of Cre delivery into cochlear hair cells when fused with aurein 1.2 versus absence of the peptide ([4]; live mice): > 20 fold

Substance: GLFDIIKKVASVIGGL [citropin 1.3]
- level of recombination in the primary screen (BSR.LNL.tdTomato cells [2]; 250 nM sortase conjugate of +36 GFP-Cre): moderate level of recombination

Substance: GLFDIIKRIAESF [K8R]
- overall recombination efficiency of aurein 1.2 variants (BSR.LNL.tdTomato cells [6]): potentially improved overall recombination efficiency
